# In patent publication US9463174B2, “Pharmaceutical composition for the treatment of type-1 diabetes” (priority 2008, dated 2016):
# Tests used:
# [1] = tested on: INS-1 cells; experiment: GABA production and release from insulin-secreting beta-cells (Free Amino Acid Analysis); type: cell-based
# Experimental: In these in vitro assays using GLP-1-secreting and/or insulin-secreting cells, it was shown that the production and secretion of GLP-1 in the gut-derived cells (STC-1) were modulated by GABA, and the production and release of GABA from the beta-cells were also modulated by GLP-1. The specificity of these assays was determined by including the GABAAR antagonists or GLP-1 receptor antagonist in the assays.
# The Free Amino Acid Analysis was performed on a Waters Acquity UPLC System. The Waters Acquity UPLC system employed consists of a Binary Solvent Manager, a Sample Manager, a TUV Detector and a Waters Acquity UPLC BEH C18 column (2.1×100 mm). Data was collected, stored and processed using Waters Empower 2 Chromatography software. Drying was done using a Tomy CC-181 Centrifugal Concentrator with a Sargent-Welch Model 8821 Vacuum pump. The operational procedures are as following: an aliquot of the sample was transferred into a 6×55 mm glass culture tube and dried under vacuum using a centrifugal evaporator. After drying, the sample was treated with a redrying solution consisting of methanol:water:triethylamine (2:2:1), vortex-mixed and dried under vacuum for 15 minutes. […] The derivatized amino acids were detected at 254 nm.
# GABA concentrations were determined by the Free Amino Acid Analysis. […]
# [2] = tested on: T1D-prone NOD mice; settings: monotherapy, Hadjiyanni I et al 2008; cited from earlier work
substance,measurement,setting,value
"GLP-1: incretin hormone glucagon-like peptide-1, SEQ ID NO: 1",production and release of GABA from the beta-cells,[1],modulated
same,efficacy on diabetes onset in T1D-prone NOD mice,[2],only marginally effective
